The record followed here is ChEMBL document CHEMBL1201862, “PubChem BioAssay data set” (2004).

Among the test systems are UO-31; HL-60; MDA-MB-231; SF-268; NCI/ADR-RES; A549; HT-29; OVCAR-8; RPMI-8226; ACHN; SK-MEL-28; IGROV-1; SK-MEL-5; Hs-578T; RXF 393; HOP-92; OVCAR-3; SR; K562; CCRF-CEM.
Holding throughout (experiment): DTP human tumour cell line panel, 48 h

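A five-concentration, 48-hour dose response in 96-well plates underlies each endpoint, interpolated linearly between surrounding concentrations. GI50 is the concentration that inhibits growth by half.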 The source made the active and inactive calls. No stated cut-off is given here; in the data, active = GI50 up to about 1.1 µM and inactive = higher.

For `O=S(=O)(c1cnccc1N1CCN(CCO)CC1)N1CCCC1`, the GI50 in the assay on UO-31, in the assay with HL-60, in the assay with MDA-MB-231, in the assay with SF-268, in the assay with NCI/ADR-RES and in the assay on A549 was > 100 µM (inactive) throughout. Besides, the GI50 in the assay on HT-29, with OVCAR-8, with RPMI-8226, in the assay on ACHN, in the assay with SK-MEL-28 and in the assay with IGROV-1 was > 100 µM (inactive) throughout. Further, the GI50 with SK-MEL-5, in the assay on Hs-578T, with RXF 393, in the assay on HOP-92, in the assay on OVCAR-3 and in the assay on SR was > 100 µM (inactive) each time. The GI50 – broadly, the concentration at which growth is held to half of that of the control – in the assay on K562 is > 100 µM (inactive).

As to `CC(C)[Si](OC/C(=C/COC(C)(C)C)[C@H]1CC=C(C(=O)c2ccccc2N2CN(C)C(=O)N(C)C2)C1)(C(C)C)C(C)C`, the GI50 in the assay with UO-31 is 11.1 µM (inactive); in the assay with MDA-MB-231, 11.9 µM (inactive); in the assay on SF-268 it was 6.58 µM (inactive); in the assay on NCI/ADR-RES it was 16.4 µM (inactive); with A549, 9.53 µM (inactive); with HT-29, 5.75 µM (inactive). The GI50 is 5.55 µM (inactive) in the assay with OVCAR-8; 6.05 µM (inactive) in the assay on RPMI-8226; 14.7 µM (inactive) in the assay on ACHN; 3.1 µM (inactive) in the assay on CCRF-CEM; 6.22 µM (inactive) with SK-MEL-28; 12.1 µM (inactive) in the assay with IGROV-1. Also, the GI50 in the assay on SK-MEL-5 is 9.95 µM (inactive); with Hs-578T it was 2.6 µM (inactive); with RXF 393 it was 4.02 µM (inactive); in the assay on HOP-92 it was 9.73 µM (inactive); in the assay with OVCAR-3, 9.93 µM (inactive); with SR, 2.14 µM (inactive). In addition, in the assay on K562, the GI50 is 1.08 µM (active).

Turning to `O=Cc1cn(CCCCCCCCCCCCn2cc(C=O)c3ccccc32)c2ccccc12`, the GI50 in the assay with UO-31 was > 100 µM (inactive); in the assay with HL-60, 1.56 µM (inactive); in the assay on MDA-MB-231 it was > 100 µM (inactive); in the assay with SF-268, > 100 µM (inactive); in the assay with NCI/ADR-RES it was 1.46 µM (inactive); in the assay with A549, 56 µM (inactive). The GI50 with HT-29 is > 100 µM (inactive); with OVCAR-8, > 100 µM (inactive); with ACHN, 4.88 µM (inactive); with CCRF-CEM, > 10 µM (inactive); with SK-MEL-28 it was > 100 µM (inactive); in the assay with IGROV-1, > 100 µM (inactive). Besides, the concentration for 50% growth inhibition (GI50) in the assay with SK-MEL-5 was 0.611 µM (active); in the assay on Hs-578T, 4.04 µM (inactive); in the assay with RXF 393, > 100 µM (inactive); in the assay with HOP-92, > 100 µM (inactive); with OVCAR-3 it was > 100 µM (inactive); in the assay on SR, 11.7 µM (inactive). In the assay on K562, the GI50 is 0.615 µM (active).

For `COC(=O)C1(Cc2ccccc2)Cc2ccccc2C1`, the GI50 was 7.73 µM (inactive) in the assay with UO-31; 14.3 µM (inactive) with HL-60; 32.7 µM (inactive) in the assay with MDA-MB-231; 23.1 µM (inactive) in the assay with SF-268; 21.9 µM (inactive) in the assay with NCI/ADR-RES; 26.7 µM (inactive) in the assay with A549. For the same compound, the GI50 in the assay on HT-29 is 20.4 µM (inactive); in the assay on OVCAR-8, 22.8 µM (inactive); with RPMI-8226, 20.4 µM (inactive); in the assay on ACHN it was 18.7 µM (inactive); in the assay with CCRF-CEM it was 15.5 µM (inactive); in the assay on SK-MEL-28, 26.9 µM (inactive). In addition, the GI50 in the assay with IGROV-1 was 28.4 µM (inactive); in the assay on SK-MEL-5, 15.7 µM (inactive); in the assay with Hs-578T, 27.5 µM (inactive); in the assay with HOP-92, 11.5 µM (inactive); in the assay with OVCAR-3, > 10 µM (inactive); with SR, 24.4 µM (inactive). For the same compound, the GI50 with K562 was 15.8 µM (inactive).

Consider `C/C(=N\Nc1nc2ccccc2n1C)c1cc2ccccc2cn1`, for which the concentration for 50% growth inhibition (GI50) is < 0.01 µM (active) in the assay with UO-31; 0.0103 µM (active) in the assay with HL-60; < 0.01 µM (active) with MDA-MB-231; < 0.0294 µM (active) in the assay on SF-268; < 0.0182 µM (active) in the assay with NCI/ADR-RES; 0.0327 µM (active) in the assay on A549. In addition, the GI50 was < 0.0118 µM (active) in the assay with HT-29; < 0.0182 µM (active) in the assay on OVCAR-8; < 0.01 µM (active) with RPMI-8226; < 0.01 µM (active) in the assay on ACHN; 0.0161 µM (active) with CCRF-CEM; 0.213 µM (active) in the assay on SK-MEL-28. Further, the GI50 in the assay on IGROV-1 was < 0.0128 µM (active); in the assay on SK-MEL-5 it was 0.0286 µM (active); in the assay with Hs-578T, 0.0933 µM (active); in the assay on RXF 393 it was 0.229 µM (active); with HOP-92 it was 0.321 µM (active); in the assay on SR, < 0.0169 µM (active). Also, the concentration for 50% growth inhibition (GI50) with K562 was < 0.0135 µM (active).

Take `CCc1cccc(C(C)C)c1NC(=O)C(=O)Nn1c(S)nc2ccccc2c1=O`: the GI50 was > 100 µM (inactive) with UO-31; 76.2 µM (inactive) with MDA-MB-231; > 100 µM (inactive) with SF-268; 47.8 µM (inactive) with NCI/ADR-RES; > 100 µM (inactive) with A549; > 100 µM (inactive) in the assay with HT-29. For the same compound, the GI50 with OVCAR-8 is > 100 µM (inactive); in the assay with RPMI-8226, > 100 µM (inactive); in the assay on ACHN, > 100 µM (inactive); in the assay with CCRF-CEM, > 100 µM (inactive); with SK-MEL-28 it was > 100 µM (inactive); in the assay on IGROV-1, 59.4 µM (inactive). The GI50 with SK-MEL-5 is > 100 µM (inactive); with Hs-578T, > 100 µM (inactive); in the assay with RXF 393, > 100 µM (inactive); in the assay with HOP-92, > 100 µM (inactive); in the assay on OVCAR-3 it was > 100 µM (inactive); with SR, 77.3 µM (inactive). The GI50 with K562 is > 100 µM (inactive).

Take `CC(=O)O[C@H]1/C(=C/c2ccc(N(C)C)cc2)C[C@H]2[C@@H]3CC=C4C[C@@H](N5CCCC5)CC[C@]4(C)[C@H]3CC[C@]12C`: the GI50 in the assay with UO-31, in the assay on HL-60, in the assay on MDA-MB-231, in the assay on SF-268, in the assay with NCI/ADR-RES and in the assay with A549 was > 100 µM (inactive) each time. In addition, the GI50 with HT-29 is 63.2 µM (inactive); with OVCAR-8, > 100 µM (inactive); in the assay with RPMI-8226, > 100 µM (inactive); in the assay on ACHN, > 100 µM (inactive); with SK-MEL-28, > 100 µM (inactive); in the assay on IGROV-1 it was > 100 µM (inactive). The GI50 is > 100 µM (inactive) with SK-MEL-5; > 100 µM (inactive) with Hs-578T; > 100 µM (inactive) in the assay with RXF 393; > 100 µM (inactive) with HOP-92; > 100 µM (inactive) in the assay with OVCAR-3; 40 µM (inactive) with SR. For the same compound, the GI50 with K562 was > 100 µM (inactive).

On to `O=C(O)COCC(=O)N(CCOCCN(Cc1ccccc1)C(=O)COCC(=O)O)Cc1ccccc1`, for which the GI50 in the assay with HL-60, in the assay on MDA-MB-231, in the assay on SF-268, in the assay with NCI/ADR-RES, in the assay on A549 and in the assay on HT-29 was > 100 µM (inactive) in each case. Further, the GI50 in the assay on OVCAR-8, in the assay with RPMI-8226, in the assay with ACHN, in the assay on CCRF-CEM, in the assay with SK-MEL-28 and in the assay on IGROV-1 was > 100 µM (inactive) each time. The GI50 is > 100 µM (inactive) with SK-MEL-5; > 100 µM (inactive) in the assay with Hs-578T; > 100 µM (inactive) in the assay on RXF 393; < 0.01 µM (active) in the assay with HOP-92; > 100 µM (inactive) in the assay with OVCAR-3; > 100 µM (inactive) in the assay with SR. Besides, the GI50 in the assay with K562 was > 100 µM (inactive).

Take `CCCCCC(/C=N/N)C(O)(C(F)(F)F)C(F)(F)F` (centres undefined): the GI50 with HL-60 is > 10 µM (inactive); in the assay with MDA-MB-231, 4.07 µM (inactive); in the assay on SF-268, 1.87 µM (inactive); with NCI/ADR-RES, > 10 µM (inactive); with A549, 4.91 µM (inactive); in the assay with HT-29, 3.59 µM (inactive). Further, the GI50 in the assay with OVCAR-8 was 3.48 µM (inactive); in the assay with RPMI-8226 it was > 10 µM (inactive); in the assay on ACHN, 4.15 µM (inactive); in the assay on CCRF-CEM, > 10 µM (inactive); in the assay on SK-MEL-28, 2.64 µM (inactive); in the assay with IGROV-1 it was 7.18 µM (inactive). The GI50 in the assay on SK-MEL-5 was 1.77 µM (inactive); with Hs-578T, 3.27 µM (inactive); with RXF 393 it was 7.28 µM (inactive); in the assay with HOP-92, 2.79 µM (inactive); in the assay on OVCAR-3, 2.04 µM (inactive); in the assay on SR it was > 10 µM (inactive).

Regarding `NS(=O)(=O)c1cc2c(cc1Cl)NCNS2(=O)=O` [HYDROCHLOROTHIAZIDE], the GI50 in the assay with UO-31, with HL-60, in the assay on MDA-MB-231, in the assay with SF-268, with NCI/ADR-RES and with A549 was > 100 µM (inactive) each time. Besides, the GI50 with HT-29, in the assay with OVCAR-8, in the assay on RPMI-8226, in the assay with ACHN, with CCRF-CEM and with SK-MEL-28 was > 100 µM (inactive) each time. The GI50 with IGROV-1, with SK-MEL-5, in the assay with Hs-578T, with HOP-92, with OVCAR-3 and in the assay with SR was > 100 µM (inactive) in each case. The GI50 in the assay on K562 is > 100 µM (inactive).
